Measurements taken from patent publication US10093678B2, “Azaspiro derivatives as TRPM8 antagonists” (RaQualia Pharma Inc., priority 2014, dated 2018).

target: T1, human TRPM8 (Homo sapiens, UniProt Q7Z2W7); test: Menthol-induced Ca2+ influx in HEK293 cells stably expressing human TRPM8; assay type: cell-based; details: 30 microM menthol-induced Ca2+ influx, read-out: IC50 against TRPM8
T1 construct: expressed in transfected cells; host or cells: HEK293
In short: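 HEK293 cells stably expressing human TRPM8 were loaded with Fluo4-AM for 1 h at room temperature, preincubated 5 min with compound, then challenged with 30 microM menthol. Calcium rise was read by FDSS imaging. IC50 came from 11-point curves using duplicate-well means.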

T1 sequence (Q7Z2W7 whole entry): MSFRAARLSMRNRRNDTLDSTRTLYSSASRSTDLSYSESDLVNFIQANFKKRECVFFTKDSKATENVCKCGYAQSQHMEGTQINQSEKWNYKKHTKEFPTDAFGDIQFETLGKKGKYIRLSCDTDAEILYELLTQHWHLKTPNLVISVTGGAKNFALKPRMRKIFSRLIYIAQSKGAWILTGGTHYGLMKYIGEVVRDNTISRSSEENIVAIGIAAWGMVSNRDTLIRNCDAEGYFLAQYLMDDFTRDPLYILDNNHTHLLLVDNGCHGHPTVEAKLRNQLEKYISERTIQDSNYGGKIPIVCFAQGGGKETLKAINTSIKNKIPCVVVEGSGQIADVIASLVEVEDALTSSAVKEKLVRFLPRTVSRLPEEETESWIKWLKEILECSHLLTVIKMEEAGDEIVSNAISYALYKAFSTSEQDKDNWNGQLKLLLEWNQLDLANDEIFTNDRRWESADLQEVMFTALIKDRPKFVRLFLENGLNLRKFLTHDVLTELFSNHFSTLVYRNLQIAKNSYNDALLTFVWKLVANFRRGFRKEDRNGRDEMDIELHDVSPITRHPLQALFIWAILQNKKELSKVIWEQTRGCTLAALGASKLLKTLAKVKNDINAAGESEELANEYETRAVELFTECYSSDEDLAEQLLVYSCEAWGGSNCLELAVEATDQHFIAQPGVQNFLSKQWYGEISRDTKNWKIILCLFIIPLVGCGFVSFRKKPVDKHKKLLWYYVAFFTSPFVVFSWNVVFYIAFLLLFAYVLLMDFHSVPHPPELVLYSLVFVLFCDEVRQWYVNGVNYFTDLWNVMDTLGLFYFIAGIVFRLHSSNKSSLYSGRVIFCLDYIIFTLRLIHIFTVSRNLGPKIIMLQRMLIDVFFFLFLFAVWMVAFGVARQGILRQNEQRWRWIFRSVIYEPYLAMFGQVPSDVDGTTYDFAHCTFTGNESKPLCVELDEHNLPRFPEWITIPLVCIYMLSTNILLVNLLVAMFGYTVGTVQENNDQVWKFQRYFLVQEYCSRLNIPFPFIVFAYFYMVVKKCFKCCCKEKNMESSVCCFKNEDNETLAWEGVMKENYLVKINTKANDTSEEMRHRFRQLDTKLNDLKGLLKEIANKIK

Row | IC50 [nM] | Compound
1 | < 100 | O=C(CN1C(=O)NC2(CCCCC2)C1=O)c1ccc(-c2ccccc2C(F)(F)F)nc1 [Example 9-6]
2 | < 10 | Cc1nc2ccccc2n1-c1cnc(C(=O)CN2C(=O)NC3(CCC(F)(F)CC3)C2=O)cn1 [Example 19-33]
3 | < 100 | Cn1c(-c2cccc3ccncc23)cnc1C(=O)CN1C(=O)NC2(CCC(F)(F)CC2)C1=O [Example 17-2]
4 | < 100 | Cc1c(C(=O)CN2C(=O)NC3(CCC(F)(F)CC3)C2=O)cn(C)c1-c1ccccc1C#N [Example 16-25]
5 | < 100 | Cc1ccnnc1-c1ccc(C(=O)CN2C(=O)NC3(CCC(F)(F)CC3)C2=O)c(F)c1 [Example 8-7]
6 | < 500 | Cn1c(-c2cccnc2)cnc1C(=O)CN1C(=O)NC2(CCC(F)(F)CC2)C1=O [Example 17-15]
7 | < 100 | O=C(CN1C(=O)NC2(CCC(F)(F)CC2)C1=O)c1ccc(-c2nccnc2CO)cc1F [Example 8-9]
8 | < 100 | N#Cc1ncccc1-c1ccc(C(=O)CN2C(=O)NC3(CCC(F)(F)CC3)C2=O)cc1F [Example 8-4]
9 | < 500 | Cc1cc(C(=O)CN2C(=O)NC3(CCC(F)(F)CC3)C2=O)sc1-c1cccc(CO)c1 [Example 14-21]
10 | < 10 | O=C(CN1C(=O)NC2(CCC(F)(F)CC2)C1=O)c1ccc(-n2c(=O)oc3ccccc32)nc1 [Example 19-14]
11 | < 100 | Cc1cc(C(=O)CN2C(=O)NC3(CCC(F)(F)CC3)C2=O)ccc1-c1cc(F)cc(F)c1 [Example 13-16]
12 | < 100 | O=C(CN1C(=O)NC2(CCC(F)(F)CC2)C1=O)c1ccc(N2C(=O)Cc3ccccc32)cc1 [Example 19-26]
13 | < 10 | Cc1ccccc1-c1ccc(C(=O)CN2C(=O)NC3(CCC(F)(F)CC3)C2=O)cn1 [Example 9-11]
14 | < 100 | Cc1cc(C(=O)CN2C(=O)NC3(CCC(F)(F)CC3)C2=O)ccc1-c1cccnc1 [Example 13-7]
15 | < 500 | Cc1cccc(Oc2ccc(C(=O)CN3C(=O)NC4(CCC(F)(F)CC4)C3=O)cc2)n1 [Example 21-6]
16 | < 500 | Cc1c(C(=O)CN2C(=O)NC3(CCC(F)(F)CC3)C2=O)cn(C)c1-c1ccccc1CO [Example 16-34]

Row | IC50 [nM] | Compound
17 | < 100 | Cc1cc(C(=O)CN2C(=O)NC3(CCC(F)(F)CC3)C2=O)sc1-c1cccc(C#N)c1 [Example 14-10]
18 | < 100 | O=C(CN1C(=O)NC2(CCC(F)(F)CC2)C1=O)c1ccc(-c2ccc3ccccc3n2)cc1 [Example 13-47]
19 | < 100 | O=C(CN1C(=O)NC2(CCC(F)(F)CC2)C1=O)c1ccc(-c2cccnc2)c(Cl)c1 [Example 13-24]
20 | < 100 | O=C(CN1C(=O)NC2(CCC(F)(F)CC2)C1=O)c1ccc(-c2cccc3cnccc23)c(F)c1 [Example 13-22]
21 | < 10 | Cc1ccncc1-c1ccc(C(=O)CN2C(=O)NC3(CCC(F)(F)CC3)C2=O)cc1 [Example 13-35]
22 | < 500 | O=C(CN1C(=O)NC2(CCC(F)(F)CC2)C1=O)c1cc2cc(-c3cccnc3)ccc2o1 [Example 13-69]
23 | < 100 | Cc1cc(C(=O)CN2C(=O)NC3(CCCCC3)C2=O)cnc1-c1ccccc1C#N [Example 11-1]
24 | < 100 | O=C(CN1C(=O)NC2(CCCCC2)C1=O)c1ccc(-c2ccccc2F)nc1 [Example 9-4]
25 | < 100 | N#Cc1cccc(Oc2ccc(C(=O)CN3C(=O)NC4(CCC(F)(F)CC4)C3=O)cc2)n1 [Example 21-5]
26 | < 500 | O=C(CN1C(=O)NC2(CCC(F)(F)CC2)C1=O)c1ccc(-n2cnc3ncncc32)cc1 [Example 19-35]
27 | < 500 | O=C(CN1C(=O)NC2(CCC(F)(F)CC2)C1=O)c1ccc(N2C(=O)CCc3ccccc32)cc1 [Example 19-27]
28 | < 100 | Cc1cccc(-c2c(C)cc(C(=O)CN3C(=O)NC4(CCC(F)(F)CC4)C3=O)n2C)c1 [Example 16-18]
29 | < 100 | O=C(CN1C(=O)NC2(CCC(F)(F)CC2)C1=O)c1ccc(-c2cnccc2CO)nc1 [Example 9-24]
30 | < 100 | Cc1nc(C(=O)CN2C(=O)NC3(CCC(F)(F)CC3)C2=O)sc1-c1cccc(F)c1 [Example 18-5]
31 | < 100 | Cc1cc(C(=O)CN2C(=O)NC3(CCC(F)(F)CC3)C2=O)ccc1-c1cccc(C#N)c1 [Example 13-11]

Second part, the compound before the results:

Row | Compound | IC50 [nM]
32 | O=C(CN1C(=O)NC2(CCC(F)(F)CC2)C1=O)c1ccc(-c2nccn3ccnc23)cc1 [Example 6-85] | < 500
33 | O=C(CN1C(=O)OC2(CCC(F)(F)CC2)C1=O)c1ccc(-c2ccccn2)cc1 [Example 7-24] | < 100
34 | Cc1nc(C(=O)CN2C(=O)OC3(CCCCC3)C2=O)c(C)n1-c1ccccc1 [Example 2-4] | < 100
35 | O=C(CN1C(=O)NC2(CCC(F)(F)CC2)C1=O)c1ccc(-c2ccnc3[nH]ccc23)cc1 [Example 6-13] | < 100
36 | Cc1cc(C(=O)CN2C(=O)NC3(CCC(F)(F)CC3)C2=O)c(C)n1-c1cncc2ccccc12 [Example 3-19] | < 100
37 | Cc1cc(C(=O)CN2C(=O)NC3(CCC(F)(F)CC3)C2=O)c(C)n1-c1nnn(C)n1 [Example 3-21] | < 500
38 | O=C(CN1C(=O)NC2(CCC(F)(F)CC2)C1=O)c1ccc(-c2nccs2)cc1 [Example 6-95] | < 500
39 | Nc1cccnc1-c1ccc(C(=O)CN2C(=O)NC3(CCC(F)(F)CC3)C2=O)cc1 [Example 6-80] | < 500
40 | O=C(CN1C(=O)NC2(CCC(F)(F)CC2)C1=O)c1ccc(-c2ncnc3ccccc23)cc1 [Example 6-2] | < 10
41 | N#Cc1cccc(-c2ccc(C(=O)CN3C(=O)OC4(CCC(F)(F)CC4)C3=O)cc2)n1 [Example 7-25] | < 100
42 | O=C(CN1C(=O)NC2(CCC(F)(F)CC2)C1=O)c1ccc(-n2cnc3ncccc32)cc1 [Example 5-11] | < 100
43 | O=C(CN1C(=O)NC2(CCCCC2)C1=O)c1ccc(Oc2ccccc2)nc1 [Example 5-24] | < 500
44 | O=C(CN1C(=O)NC2(CCC(F)(F)CC2)C1=O)c1ccc(-c2cccc(O)c2)cc1 [Example 6-35] | < 100
45 | O=C(CN1C(=O)NC2(CCC(F)(F)CC2)C1=O)c1ccc(-c2nccc3ccccc23)cc1 [Example 6-25] | < 100
46 | N#Cc1ccccc1Cc1ccc(C(=O)CN2C(=O)NC3(CCC(F)(F)CC3)C2=O)cc1 [Example 6-120] | < 500
47 | CC(=O)c1ccccc1-c1ccc(C(=O)CN2C(=O)NC3(CCC(F)(F)CC3)C2=O)cc1 [Example 6-102] | < 500
48 | O=C(CN1C(=O)NC2(CCC(F)(F)CC2)C1=O)c1ccc(-c2ccccc2CCO)cc1 [Example 6-106] | < 100
49 | O=C(CN1C(=O)NC2(CCC(F)(F)CC2)C1=O)c1ccc(-c2cccc3ncncc23)cc1 [Example 6-45] | < 100
50 | Cc1ccc2nc(C)n(-c3ccc(C(=O)CN4C(=O)NC5(CCC(F)(F)CC5)C4=O)cc3)c2n1 [Example 5-27] | < 10
51 | O=C(CN1CC2(CCC(F)(F)CC2)OC1=O)c1ccc(-c2cccnc2CO)cc1 [Example 7-18] | < 500
52 | Cc1nc(-c2ccc(C(=O)CN3C(=O)NC4(CCC(F)(F)CC4)C3=O)cc2)c2ccccc2n1 [Example 6-33] | < 100
53 | Cc1c(C(=O)CN2C(=O)NC3(CCC(F)(F)CC3)C2=O)nn(C)c1-c1ccccc1 [Example 4-1] | < 100
54 | Cc1nc(C(=O)CN2C(=O)NC3(CCCCC3)C2=O)c(C)n1-c1ccccc1 [Example 2-1] | < 100
55 | Cc1cccc(-n2c(C)cc(C(=O)CN3C(=O)NC4(CCC(F)(F)CC4)C3=O)c2C)c1 [Example 3-5] | < 100
